This note sets out measurements from patent US8044037B2, “Modified phosphocalcic compound, injectable composition containing same” (Centre National de la Recherche Scientifique, priority 2002, dated 2011).

The subject of the assay is rabbit osteoclast model (osteoclast resorption). The assay is described as follows: Supernatants of incubated CDA samples tested in rabbit osteoclast model (FIG. 6). The class given is cell-based. The following applies: supernatant after 96 hours at 37° C. (200 mg in 5 ml culture medium) or 10^−6 M zoledronate solution; pure, diluted 10-, 100- and 1000-fold. Here is the method:
Several samples of CDA (200 mg) modified by adding zoledronate in accordance with the process of example 1 and several samples of unmodified CDA were incubated in 5 ml of culture medium at 37° C. After incubation for 96 hours, the various supernatants were collected and used pure, diluted 10-fold, 100-fold and 1000-fold in a rabbit osteoclast model.
The results are represented in FIG. 6, in which the percentage of resorption R is indicated on the y-axis, the conditions being indicated on the x-axis. Among the conditions: • “vehicle” means the culture medium alone • “pure CDA” means the supernatant derived from the incubation of pure CDA in the culture medium; “CDA 1/10”, “CDA 1/100” and “CDA 1/1000” mean, respectively, the solution referred to above and diluted to 1/10, 1/100 and 1/1000 • “pure zo” means a 10^−6 M solution of zoledronate in the culture medium, “zo 1/10”, “zo 1/100” and “zo 1/1000” mean, respectively, the solution referred to above and diluted to 1/10, 1/100 and 1/1000 • “pure CDAzo” means the supernatant derived from the incubation of zoledronate-containing CDA in the culture medium, and “CDAzo 1/10”, “CDAzo 1/100” and “CDAzo 1/1000” mean, respectively, the solution referred to above and diluted to 1/10, 1/100 and 1/1000.

On to `O=P(O)(O)C(O)(Cn1ccnc1)P(=O)(O)O` [zoledronate], for which the “effect on osteoclast resorption (percentage of resorption R, FIG. 6)” value is reported as “inhibits resorption according to a dose/effect relationship”.
